Test: Multi-dose plasma PK of PBA, GPB vs. BUPHENYL (NaPB), TID, fed
Format: in vivo, human
Conditions: GPB avg. dose 13.5 TID, N = 44, arithmetic mean

For `O=C(CCCc1ccccc1)OCC(COC(=O)CCCc1ccccc1)OC(=O)CCCc1ccccc1` [GPB, glycerol phenylbutyrate], the “Plasma PBA AUC0-24” value was 443 µg·h/mL, the “Plasma PBA Cmax” value was 51.9 µg/mL and the “Plasma PBA Tmax” value was 8.0 h.
